A word on the IC50: it is the point on the concentration scale where inhibition reaches its midpoint. As a reminder, the IC90 is the concentration needed for an effect of 90%.

Read-outs that look alike come from different tables or passages of the source.

17 molecules from patent US7232912B2, “Indazole compounds, pharmaceutical compositions, and methods for mediating or inhibiting cell proliferation” (Agouron Pharmaceuticals, Inc., priority 2000, dated 2007) can be followed below.

The subject of one test is HCT 116 cell line. Briefly: Inhibition of Cell Growth (MTT tetrazolium salt assay). The format is cell-based. To be noted: Homo sapiens. As to the method:
Inhibition of Cell Growth: Assessment of Cytotoxicity
Inhibition of cell growth was measured using the tetrazolium salt assay, which is based on the ability of viable cells to reduce 3-(4,5-dimethylthiazol-2-yl)-2,5-[2H]-diphenyltetrazolium bromide (MTT) to formazan (Mossman, Journal of Immunological Methods, vol. 65 (1983), pp. 55–58). The water-insoluble purple formazan product was then detected spectrophotometrically. The HCT 116 cell line was grown in 96-well plates. Cells were plated in the appropriate medium at a volume of 135 μl/well in McCoy's 5A Medium. Plates were incubated for four hours before addition of inhibitor compounds. Different concentrations of inhibitor compounds were added in 0.5% (v/v) dimethylsulfoxide (15 μL/well), and cells were incubated at 37° C. (5% CO2) for four to six days (depending on cell type). At the end of the incubation, MTT was added to a final concentration of 0.2 mg/mL, and cells were incubated for 4 hours more at 37° C. After centrifugation of the plates and removal of medium, the absorbance of the formazan (solubilized in dimethylsulfoxide) was measured at 540 nm. The concentration of inhibitor compound causing 50% inhibition of growth was determined from the linear portion of a semi-log plot of inhibitor concentration versus percentage inhibition. All results were compared to control cells treated only with 0.5% (v/v) dimethylsulfoxide.
(In general: Formazan colour is commonly taken as a measure of viable cells.)

Another test addresses T1, CDK2/cyclin A (Homo sapiens, UniProt P24941).
T1 construct: made in house; host or cells: CDK2: insect cells (baculovirus); cyclin A: E. coli
Briefly: Inhibition of CDK2/Cyclin A Retinoblastoma Kinase Activity. The test is classed as biochemical. The conditions noted are these: apparent Ki. As to the method:
(§1) Cyclin-dependent kinase activity was measured by quantifying the enzyme-catalyzed, time-dependent incorporation of radioactive phosphate from [^32P]ATP or [^33P]ATP into a protein substrate. Unless noted otherwise, assays were performed in 96-well plates in a total volume of 50 μL, in the presence of 10 mM HEPES (N-[2-hydroxyethyl]piperazine-N′-[2-ethanesulfonic acid]) (pH 7.4), 10 mM MgCl2, 25 μM adenosine triphosphate (ATP), 1 mg/mL ovalbumin, 5 μg/mL leupeptin, 1 mM dithiothreitol, 10 mM beta-glycerophosphate, 0.1 mM sodium vanadate, 1 mM sodium fluoride, 2.5 mM ethylene glycol-bis(β-aminoethyl ethKer)-N,N,N′N′-tetraacetic acid (EGTA), 2% (v/v) dimethylsulfoxide, and 0.03–0.4 μCi [^32/33P]ATP per reaction. Reactions were initiated with appropriate enzyme, incubated at 30° C., and terminated after 20 minutes by the addition of ethylenediaminetetraacetic acid (EDTA) to 250 mM. The phosphorylated substrate was then captured on a nitrocellulose or phosphocellulose membrane using a 96-well filtration manifold, and unincorporated radioactivity was removed by repeated washing with 0.85% phosphoric acid. Radioactivity was quantified by exposing the dried membranes to a phosphorimager.
(§2) Apparent Ki values were measured by assaying enzyme activity in the presence of different inhibitor compound concentrations and subtracting the background radioactivity measured in the absence of enzyme. Inhibition data were fit to an equation for competitive inhibition using Kaleidagraph (Synergy Software), or were fit to an equation for competitive tight-binding inhibition using the software KineTic (BioKin, Ltd.).
Inhibition of CDK2/Cyclin A Retinoblastoma Kinase Activity
CDK2 was purified using published methodology (Rosenblatt et al., “Purification and Crystallization of Human Cyclin-dependent Kinase 2,” J. Mol. Biol., vol. 230, 1993, pp. 1317–1319) from insect cells that had been infected with a baculovirus expression vector. […] A complex of CDK2 and proteolyzed cyclin A was prepared and purified by gel filtration. The substrate for this assay was the same Rb substrate fragment used for the CDK4 assays, and the methodology of the CDK2/cyclin A and the CDK4/cyclin D3 assays was essentially the same, except that CDK2 was present at 150 nM or 5 nM. Ki values were measured as described above.

The target of another test is CDK4/cyclin D3 (Homo sapiens, UniProt P11802). Briefly: Inhibition of CDK4/Cyclin D Retinoblastoma Kinase Activity. The test is classed as biochemical. To be noted: apparent Ki. As to the method:
as §1, §2
Inhibition of CDK4/Cyclin D Retinoblastoma Kinase Activity
A complex of human CDK4 and cyclin D3, or a complex of human CDK4 and genetically truncated (1–264) cyclin D3, was purified using traditional biochemical chromatographic techniques from insect cells that had been co-infected with the corresponding baculovirus expression vectors (see e.g., Meijer and Kim, “Chemical Inhibitors of Cyclin-Dependent Kinases,” Methods in Enzymol,. vol. 283 (1997), pp. 113–128.). The enzyme complex (5 or 50 nM) was assayed with 0.3–0.5 μg of purified recombinant retinoblastoma protein fragment (Rb) as a substrate. The engineered Rb fragment (residues 386–928 of the native retinoblastoma protein; 62.3 kDa) contains the majority of the phosphorylation sites found in the native 106-kDa protein, as well as a tag of six histidine residues for ease of purification. Phosphorylated Rb substrate was captured by microfiltration on a nitrocellulose membrane and quantified using a phosphorimager as described above. For measurement of tight-binding inhibitors, the enzyme complex concentration was lowered to 5 nM, and the assay duration was extended to 60 minutes, during which the time-dependence of product formation was linear.

Where [1] appears, read: HCT 116, MTT, 50% inhibition of growth, read-out: HCT 116 IC50.
Setting [2] is: HCT 116, MTT, IC90, read-out: HCT 116 IC90.
The mark [3] stands for this setting: HCT-116, read-out: HCT 116 IC50 (uM).
[4] abbreviates: HCT-116, read-out: HCT 116 IC90 (uM).

Chain of CDK4/cyclin D3 (P11802 2-303 limits assumed): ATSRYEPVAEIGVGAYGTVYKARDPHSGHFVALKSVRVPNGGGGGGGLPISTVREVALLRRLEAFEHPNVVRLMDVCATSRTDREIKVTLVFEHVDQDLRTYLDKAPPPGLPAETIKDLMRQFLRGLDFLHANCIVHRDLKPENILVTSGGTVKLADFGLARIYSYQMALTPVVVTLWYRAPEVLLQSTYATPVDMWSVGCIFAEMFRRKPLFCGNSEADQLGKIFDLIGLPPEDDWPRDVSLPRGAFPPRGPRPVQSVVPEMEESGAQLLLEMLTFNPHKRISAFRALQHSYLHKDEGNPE
Chain of CDK4/cyclin D3 (P30281 1-264 limits assumed, further chain): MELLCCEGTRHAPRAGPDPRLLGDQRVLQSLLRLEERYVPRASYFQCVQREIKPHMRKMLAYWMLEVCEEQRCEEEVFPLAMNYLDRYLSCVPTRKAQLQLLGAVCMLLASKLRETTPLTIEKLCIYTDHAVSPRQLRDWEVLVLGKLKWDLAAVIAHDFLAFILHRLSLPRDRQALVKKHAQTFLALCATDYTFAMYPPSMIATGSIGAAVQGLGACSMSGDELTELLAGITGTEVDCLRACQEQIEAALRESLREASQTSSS

With `CC(=O)N1CCCc2c(-c3ccc4[nH]nc(-c5nc6ccccc6[nH]5)c4c3)cncc21` [Example 63, 1-{5-[3-(1H-Benzoimidazol-2yl)-1H-indazol-5-yl]-3,4-dihydro-2H-[1,7]naphthyridin-1-yl}-ethanone], in the test with HCT 116 cell line (setting [1]), the concentration for half-maximal inhibition (IC50) came to 0.43 µM. For the same molecule, the IC90 with HCT 116 cell line (setting [2]) is 1.3 µM. In addition, the figures for the Ki on CDK2/cyclin A and on CDK4/cyclin D3 were 1.2 nM and 220 nM, respectively.

Regarding `Cc1c(C(N)=O)cncc1-c1ccc2[nH]nc(-c3nc4ccccc4[nH]3)c2c1` [Example 64, 5-[3-(1H-Benzoimidazol-2-yl)-1H-indazol-5-yl]-4-methyl-nicotinamide], in the test with HCT 116 cell line (setting [1]), the IC50 came out at 1.3 µM. Also, the IC90 with HCT 116 cell line (setting [2]) came out at 5 µM. Besides, the Ki came to 14 nM at CDK2/cyclin A and 190 nM on CDK4/cyclin D3.

`c1ccc2c(-c3ccc4[nH]nc(-c5nc6c([nH]5)CCCC6)c4c3)cncc2c1` [Example 66, 4-[3-(4,5,6,7-Tetrahydro-1H-benzoimidazol-2-yl)-1H-indazol-5-yl]-isoquinoline]: the IC50 in the test with HCT 116 cell line (setting [1]) was 0.49 µM. In addition, the IC90 with HCT 116 cell line (setting [2]) came out at 1.6 µM. For the same molecule, the Ki on CDK2/cyclin A was determined as 1 nM; at CDK4/cyclin D3, 55 nM.

`Cc1nc(-c2n[nH]c3ccc(-c4cncc5ccccc45)cc23)[nH]c1-c1ccccc1` [Example 67, 4-[3-(4-Methyl-5-phenyl-1H-imidazol-2-yl)-1H-indazol-5-yl]-isoquinoline]: the IC50 with HCT 116 cell line (setting [3]) was 2 µM. Further, the concentration for an effect of 90% (IC90) in the test on HCT 116 cell line (setting [4]) was determined as 4.7 µM. Moreover, the Ki at CDK2/cyclin A was determined as 16 nM; on CDK4/cyclin D3, 220 nM.

Take `Cc1cncc(-c2ccc3[nH]nc(-c4nc5ccccc5[nH]4)c3c2)c1C` [Example 75]: the IC50 in the test with HCT 116 cell line (setting [1]) was 0.4 µM. In the test on HCT 116 cell line (setting [2]), the IC90 amounted to 1.3 µM. The Ki at CDK2/cyclin A was 1.4 nM; at CDK4/cyclin D3, 9.8 nM.

With `Cc1c(-c2ccc3[nH]nc(-c4nc5ccccc5[nH]4)c3c2)cnc2ccccc12` [Example 76, 3-[3-(1H-Benzoimidazol-2-yl)-1H-indazol-5-yl]-4-methyl-quinoline], the IC50 in the test on HCT 116 cell line (setting [1]) is 0.5 µM. The IC90 in the test on HCT 116 cell line (setting [2]) turned out to be 0.5 µM. Also, the Ki at CDK2/cyclin A was found to be 27 nM; on CDK4/cyclin D3, 150 nM.

As to `Cc1c(O)cncc1-c1ccc2[nH]nc(-c3nc4ccccc4[nH]3)c2c1` [Example 77, 5-[3-(1H-Benzoimidazol-2-yl)-1H-indazol-5-yl]-4-methyl-pyridin-3-ol], the IC50 in the test on HCT 116 cell line (setting [1]) came to 0.31 µM. Besides, the IC90 with HCT 116 cell line (setting [2]) is 0.5 µM. For the same molecule, the Ki at CDK2/cyclin A turned out to be 0.38 nM; on CDK4/cyclin D3, 5.8 nM.

On to `Cc1c(CNC(C)C)cncc1-c1ccc2[nH]nc(-c3nc4ccccc4[nH]3)c2c1` [Example 78, {5-[3-(1H-Benzoimidazol-2-yl)-1H-indazol-5-yl]-4-methyl-pyridin-3-ylmethyl}-isopropyl-amine], for which the IC50 with HCT 116 cell line (setting [3]) was 0.085 µM. Besides, the IC90 in the test with HCT 116 cell line (setting [4]) is 0.22 µM. The Ki on CDK2/cyclin A stood at 0.7 nM; at CDK4/cyclin D3, 5.5 nM.

`C(=N\n1cccc1)/c1n[nH]c2ccc(-c3cncc4ccccc34)cc12` [Example 79, (5-Isoquinolin-4-yl-1H-indazol-3-ylmethylene)-pyrrol-1-yl-amine]: in the test with HCT 116 cell line (setting [1]), the IC50 was 0.5 µM. Also, the IC90 with HCT 116 cell line (setting [2]) is 0.5 µM. Moreover, the Ki at CDK2/cyclin A came to 0.42 nM; at CDK4/cyclin D3, 2.2 nM.

Consider `CCNCc1cncc(-c2ccc3[nH]nc(-c4nc5c(SC)cccc5[nH]4)c3c2)c1C` [Example 81, Ethyl-4-{methyl-5-[3-(4-methylsulfanyl-1H-benzoimidazol-2-yl)-1H-indazol-5-yl]-pyridin-3-ylmethyl}-amine], for which the IC90 in the test on HCT 116 cell line (setting [2]) came to 0.21 µM. Besides, the Ki on CDK2/cyclin A was 4.9 nM; at CDK4/cyclin D3 it was 0.8 nM.

For the molecule `Cc1c(CNCC(C)C)cncc1-c1ccc2[nH]nc(-c3nc4ccccc4[nH]3)c2c1` [Example 87, {5-[3-(1H-Benzoimidazol-2-yl)-1H-indazol-5-yl]-4-methyl-pyridin-3-ylmethyl}-isobutyl-amine], in the test with HCT 116 cell line (setting [1]), the IC50 is 0.16 µM. Besides, the IC90 in the test with HCT 116 cell line (setting [2]) is 0.42 µM. The Ki at CDK2/cyclin A is 1.9 nM; on CDK4/cyclin D3 it was 4.2 nM.

In the case of `Cc1c(CNCc2ccccc2)cncc1-c1ccc2[nH]nc(-c3nc4ccccc4[nH]3)c2c1` [Example 88, {5-[3-(1H-Benzoimidazol-2-yl)-1H-indazol-5-yl]-4-methyl-pyridin-3-ylmethyl}-benzyl-amine], the 50% inhibitory concentration (IC50) in the test on HCT 116 cell line (setting [1]) is more than 0.5 µM. The IC90 with HCT 116 cell line (setting [2]) is more than 0.5 µM. For the same molecule, the Ki on CDK2/cyclin A turned out to be 1.4 nM; at CDK4/cyclin D3, 3.5 nM.

Turning to `Cc1c(CNCCO)cncc1-c1ccc2[nH]nc(-c3nc4ccccc4[nH]3)c2c1` [Example 89, 2-({5-[3-(1H-Benzoimidazol-2-yl)-1H-indazol-5-yl]-4-methyl-pyridin-3-ylmethyl}-amino)-ethanol], the IC50 in the test on HCT 116 cell line (setting [1]) came to 0.15 µM. In addition, the 90% effect concentration (IC90) with HCT 116 cell line (setting [2]) came out at 0.25 µM. The Ki at CDK2/cyclin A turned out to be 0.94 nM; on CDK4/cyclin D3, 1 nM.

For the molecule `CNC(C)c1cccc2[nH]c(-c3n[nH]c4ccc(-c5cncc6ccccc56)cc34)nc12` (stereo not shown) [Example 90, {1-[2-(5-Isoquinolin-4-yl-1H-indazol-3-yl)-1H-benzoimidazol-4-yl]-ethyl}-methyl-amine], the IC50 in the test on HCT 116 cell line (setting [1]) is 0.03 µM. In the test with HCT 116 cell line (setting [2]), the IC90 was 0.12 µM. Further, the Ki at CDK2/cyclin A is 0.3 nM; on CDK4/cyclin D3 it was 0.09 nM.

For `Cc1c(CN2CCOCC2)cncc1-c1ccc2[nH]nc(-c3nc4ccccc4[nH]3)c2c1` [Example 91, 3-(1H-Benzoimidazol-2-yl)-5-(4-methyl-5-morpholin-4-ylmethyl-pyridin-3-yl)-1H-indazole], in the test with HCT 116 cell line (setting [1]), the IC50 came to 0.34 µM. Further, in the test with HCT 116 cell line (setting [2]), the IC90 is more than 0.5 µM. For the same molecule, the Ki is 2.8 nM on CDK2/cyclin A and 7.5 nM at CDK4/cyclin D3.

As for `Cc1c(CNC2CCCC2)cncc1-c1ccc2[nH]nc(-c3nc4ccccc4[nH]3)c2c1` [Example 92, {5-[3-(1H-Benzoimidazol-2-yl)-1H-indazol-5-yl]-4-methyl-pyridin-3-ylmethyl}-cyclopentyl-amine], in the test on HCT 116 cell line (setting [1]), the IC50 was 0.18 µM. The IC90 with HCT 116 cell line (setting [2]) worked out at 0.5 µM. In addition, the results for the Ki at CDK2/cyclin A and at CDK4/cyclin D3 were 2.7 nM and 7.8 nM, respectively.

Turning to `Cc1c(CNc2cccnc2)cncc1-c1ccc2[nH]nc(-c3nc4ccccc4[nH]3)c2c1` [Example 93, {5-[3-(1H-Benzoimidazol-2-yl)-1H-indazol-5-yl]-4-methyl-pyridin-3-ylmethyl}-pyridin-3-yl-amine], the half-maximal inhibitory concentration (IC50) in the test on HCT 116 cell line (setting [1]) stood at 0.32 µM. For the same molecule, in the test on HCT 116 cell line (setting [2]), the IC90 is more than 0.5 µM. The values for the Ki on CDK2/cyclin A and on CDK4/cyclin D3 were 0.61 nM and 1.9 nM, respectively.
